Laboratory results taken from PubChem BioAssay AID732 (Emory University Molecular Libraries Screening Center, 2007).
The source made the active and inactive calls. How the calls were made is not given here.

Tested on: in vivo angiogenesis, blood vessel count
Assay: angiogenesis inhibition in living animals, in vivo study, HTS (AID 732);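 further: zebrafish embryos dosed at one day post fertilization; 0% = reference inhibitor and 100% = plate mean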
Settings: hits give low values;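 tested at 30 µM in the well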

O=C1N(c2ccccc2)c2ccccc2C1(Cc1ccncc1)Cc1ccncc1
vessel count % control: 96.6% (inactive)

N=C(N)SCCc1cccc(CCSC(=N)N)c1
vessel count % control: 106% (inactive)

NC1(C(=O)O)CC1
vessel count % control: 127% (inactive)

O=C(OCCN1CCCCC1)c1c[nH]c2ccccc12
vessel count % control: 109% (inactive)

COC(=O)C(N)Cc1ccc(Cl)cc1 (stereo not given)
vessel count % control: 82.4% (inactive)

Clc1cnc(Oc2ccc(Oc3ncc(Cl)cc3Cl)cc2)c(Cl)c1
vessel count % control: 96.7% (inactive)

COc1c2c(nc3ccccc13)OC(C(C)(O)CO)C2 (stereo not given)
vessel count % control: 120% (inactive)

O=c1c(-c2ccc(O)cc2)coc2cc(O)cc(O)c12
vessel count % control: 107% (inactive)

COc1cc2nc(N3CCN(C(=O)C4CCCO4)CC3)nc(N)c2cc1OC (stereo not given)
vessel count % control: 83.3% (inactive)

NC(N)=NCCSSCCN=C(N)N
vessel count % control: 93.7% (inactive)

CN(C)CCCC1(c2ccc(F)cc2)OCc2cc(C#N)ccc21 (stereo not given)
vessel count % control: 99.8% (inactive)

C#CCN(C)[C@@H](C)Cc1ccccc1
vessel count % control: 74.7% (inactive)

COCC(=O)O[C@]1(CCN(C)CCCc2nc3ccccc3[nH]2)CCc2cc(F)ccc2[C@@H]1C(C)C
vessel count % control: 90.9% (inactive)

CCN(CC)C(=O)c1ccc(O)c(OC)c1
vessel count % control: 96.8% (inactive)

O=Nc1c(-c2c(O)[nH]c3c(Cl)cc(Cl)cc23)[nH]c2ccc(Br)cc12
vessel count % control: 126% (inactive)

O=P1(N(CCCl)CCCl)NCCCO1 (stereo not given)
vessel count % control: 105% (inactive)

CCCNCC(O)COc1ccccc1C(=O)CCc1ccccc1 (stereo not given)
vessel count % control: 102% (inactive)

Cc1cccc(C2CN(C)CCc3c2cc(O)c(O)c3Cl)c1 (stereo not given)
vessel count % control: 96.5% (inactive)

CNCC[C@@H](Oc1ccc(C(F)(F)F)cc1)c1ccccc1
vessel count % control: 113% (inactive)

COC(=O)[C@H](NC(=O)c1cc(-c2ccccc2)nc2ccccc12)c1ccccc1
vessel count % control: 97.2% (inactive)

COC(=O)C(C)(N)Cc1ccc(O)cc1 (stereo not given)
vessel count % control: 123% (inactive)

Nc1ncnc2c1ncn2C1CCCC1
vessel count % control: 81.5% (inactive)

CCCCNc1c(C(=O)OCC)c(C)nc2c1cnn2CC
vessel count % control: 87.3% (inactive)

OC[C@H]1O[C@@H](n2cnc3cncnc32)[C@H](O)[C@@H]1O
vessel count % control: 82.1% (inactive)

C[C@@H](Oc1ccc(Oc2cnc3ccc(Cl)cc3n2)cc1)C(=O)O
vessel count % control: 80.3% (inactive)

CN1C2CCC1CC(OC(=O)c1cc(Cl)cc(Cl)c1)C2 (stereo not given)
vessel count % control: 77% (inactive)

Nc1ccn([C@@H]2O[C@H](CO)[C@@H](O)[C@@H]2O)c(=O)n1
vessel count % control: 104% (inactive)

CCCCCCCCCCCCCCCCCCNC(=O)OCC(COP(=O)([O-])OCC[n+]1ccsc1)OC (stereo not given)
vessel count % control: 92% (inactive)

COc1ccccc1N1CCN(CC(O)COc2cccc3ccccc23)CC1 (stereo not given)
vessel count % control: 91.2% (inactive)

c1cc(CN2CCCCC2)cc(OCCCNc2nc3ccccc3s2)c1
vessel count % control: 112% (inactive)

N=C(N)SCCc1ccc(CCSC(=N)N)cc1
vessel count % control: 72.6% (inactive)

CCCC(C(=O)OCCN(CC)CC)(c1ccccc1)c1ccccc1
vessel count % control: 98% (inactive)

COc1ccc2c(c1)C13CCCCC1C(C2)N(C)CC3 (stereo not given)
vessel count % control: 108% (inactive)

N[C@@H](Cc1c[nH]c2ccccc12)C(=O)O
vessel count % control: 88.5% (inactive)

C[C@](N)(Cc1ccc(O)c(O)c1)C(=O)O
vessel count % control: 97.4% (inactive)

CSc1nc(N)c2ncn([C@@H]3O[C@H](COP(=O)(O)OP(=O)(O)O)[C@H](O)C3O)c2n1 (stereo not given in full)
vessel count % control: 83.5% (inactive)

CC(=O)CCCCn1c(=O)c2c(ncn2C)n(C)c1=O
vessel count % control: 109% (inactive)

O=C(Nc1ccccc1)c1cc([N+](=O)[O-])ccc1Cl
vessel count % control: 90.3% (inactive)

N=C(N)c1ccc(OCCCCCOc2ccc(C(=N)N)cc2)cc1 (tested in a mixture with another compound)
vessel count % control: 99.1% (inactive)

Oc1[nH]c2ccccc2c1C1=Nc2ccc(Br)cc2/C1=N\OCCBr
vessel count % control: 79.9% (inactive)

NCCCCN
vessel count % control: 106% (inactive)

C#CCOC(=O)C1=CCCN(C)C1
vessel count % control: 106% (inactive)

C[C@]12CCC(=O)C=C1CC[C@@H]1[C@@H]2C(=O)C[C@@]2(C)[C@H]1CC[C@]2(O)C(=O)CO
vessel count % control: 126% (inactive)

N[C@H](C(=O)O)[C@H]1C[C@@H]1C(=O)O
vessel count % control: 92.9% (inactive)

Cn1c(=O)c2[nH]cnc2n(C)c1=O
vessel count % control: 105% (inactive)

CNc1ncnc2c1ncn2[C@@H]1O[C@H](CO)[C@H](O)C1O (stereo not given in full)
vessel count % control: 95.4% (inactive)

NC(N)=NCc1cccc(I)c1
vessel count % control: 98.4% (inactive)

Cc1cc(C)c(NC(=O)C[C@H](CC(=O)O)c2cccc3ccccc23)c(C(=O)N2CCC3(CCCC3)CC2)c1
vessel count % control: 108% (inactive)

Nc1c2c(nc3ccccc13)CCCC2O (stereo not given)
vessel count % control: 86.4% (inactive)

C[Se]C[C@H](N)C(=O)O
vessel count % control: 103% (inactive)

C[C@]12CCC3C(CC[C@H]4C[C@H](O)CC[C@]34C)C1CC[C@@H]2C(=O)CO (stereo not given in full)
vessel count % control: 105% (inactive)

C=Cc1c(C)c2cc3[nH]c(cc4nc(cc5nc(cc1[nH]2)C(C)=C5CCC(=O)O)C(CCC(=O)O)=C4C)c(C)c3C=C
vessel count % control: 112% (inactive)

CC(=O)C(C)=O
vessel count % control: 99.7% (inactive)

COc1cc(C[C@@H](C)N)c(OC)cc1I
vessel count % control: 93.2% (inactive)

CC(C)COC(=O)OCN1C(=O)CN(CCN2CC(=O)N(COC(=O)OCC(C)C)C(=O)C2)CC1=O
vessel count % control: 104% (inactive)

CC(C)(C)c1cc(/C=C(\C#N)C(N)=S)cc(C(C)(C)C)c1O
vessel count % control: 0% (inactive)

COc1ccc(CCN(C)CCCC(C#N)(c2ccc(OC)c(OC)c2)C(C)C)cc1OC (stereo not given)
vessel count % control: 118% (inactive)

CC(C)NCC(O)COc1ccc(CC(N)=O)cc1 (stereo not given)
vessel count % control: 102% (inactive)

NC(=O)c1cnccn1
vessel count % control: 76.5% (inactive)

OCCN1CCN(CC/C=C2/c3ccccc3Sc3ccc(C(F)(F)F)cc32)CC1
vessel count % control: 110% (inactive)

Oc1cc(O)cc(/C=C/c2ccc(O)c(O)c2)c1
vessel count % control: 101% (inactive)

CC(=O)[C@H]1CC[C@H]2[C@@H]3CC[C@H]4C[C@H](O)CC[C@]4(C)[C@H]3C(=O)C[C@]12C
vessel count % control: 111% (inactive)

COc1cc([C@@H]2c3cc4c(cc3[C@H](O)C3COC(=O)[C@@H]32)OCO4)cc(OC)c1OC (stereo not given in full)
vessel count % control: 88.6% (inactive)

CC(C)N(CCC(=O)c1ccc2ccccc2c1)Cc1ccccc1
vessel count % control: 0% (inactive)

COc1cccc(OC)c1OCCNCC1COc2ccccc2O1 (stereo not given)
vessel count % control: 90.6% (inactive)

C[N+](C)(C)CC(=O)O
vessel count % control: 94% (inactive)

COc1ccccc1CNCCCCCCNCCCCCCCCNCCCCCCNCc1ccccc1OC
vessel count % control: 113% (inactive)

C[C@]12CC[C@@H]3c4ccc(O)cc4CC[C@H]3[C@@H]1CC[C@@H]2O
vessel count % control: 104% (inactive)

Nc1nc2[nH]c(=O)cnc2c(=O)[nH]1
vessel count % control: 140% (inactive)

NC(=O)COc1c(F)cc(SCCNS(=O)(=O)c2ccccc2)cc1F
vessel count % control: 116% (inactive)

CN(C)CCCN1c2ccccc2CCc2ccc(Cl)cc21
vessel count % control: 85.2% (inactive)

CCCCS(=N)(=O)CCC(N)C(=O)O (stereo not given)
vessel count % control: 137% (inactive)

COc1cc(C(O)CO)ccc1OS(=O)(=O)O (stereo not given)
vessel count % control: 93.6% (inactive)

Nc1c(S(=O)(=O)O)cc(Nc2ccc(Nc3nc(Cl)nc(Nc4ccc(S(=O)(=O)O)cc4)n3)c(S(=O)(=O)O)c2)c2c1C(=O)c1ccccc1C2=O
vessel count % control: 106% (inactive)

Cc1ccc2[nH]c(O)c(C3=Nc4ccc(Br)cc4C3=O)c2c1
vessel count % control: 108% (inactive)

C=CCn1c(=O)c2c(nc(-c3ccc(S(=O)(=O)O)cc3)n2C)n(C)c1=O
vessel count % control: 92% (inactive)

CCCN(CCC)[C@@H]1CCc2c(F)ccc(O)c2C1
vessel count % control: 78.7% (inactive)

CP(=O)(O)C1=CCNCC1
vessel count % control: 116% (inactive)

C=CCN1CCC23c4c5ccc(O)c4O[C@H]2C(=O)CC[C@@]3(O)C1C5 (stereo not given in full)
vessel count % control: 88.4% (inactive)

CCN(CC)c1ncnc2c1ncn2[C@@H]1O[C@H](COP(=O)(O)OP(=O)(O)C(Br)(Br)P(=O)(O)O)[C@@H](O)[C@H]1O
vessel count % control: 81.9% (inactive)

CNCCCC12CCC(c3ccccc31)c1ccccc12
vessel count % control: 92.5% (inactive)

Oc1ccc(-c2nc(-c3ccc(F)cc3)c(-c3ccncc3)[nH]2)cc1
vessel count % control: 97.9% (inactive)

NC(=NCCC[C@H](N)C(=O)O)N[N+](=O)[O-]
vessel count % control: 96.2% (inactive)

O=C(O)/C=C/C(O)c1ccc(Cl)cc1 (stereo not given)
vessel count % control: 115% (inactive)

S=C(NC1CCCCC1)N1CCC(c2cnc[nH]2)CC1
vessel count % control: 129% (inactive)

COc1cc2ncnc(Nc3cccc(Cl)c3)c2cc1OC
vessel count % control: 34.6%

O=C(O)c1cc(=O)c2ccc(Cl)cc2[nH]1
vessel count % control: 110% (inactive)

CC1OC1P(=O)(O)O (stereo not given)
vessel count % control: 102% (inactive)

Nc1ncnc2c1nc(Br)n2C1OC2COP(=O)(O)O[C@@H]2C1O (stereo not given in full)
vessel count % control: 101% (inactive)

CC(N)c1cccc(Cl)c1Cl (stereo not given)
vessel count % control: 89.7% (inactive)

COC1(C2=NCCN2)COc2ccccc2O1 (stereo not given)
vessel count % control: 121% (inactive)

CCCCCCCCCCCCCCC[C@H](O)[C@H](N)CO
vessel count % control: 101% (inactive)

CCc1c(C(=O)OC)ncc2[nH]c3cc(OC)c(OC)cc3c12
vessel count % control: 129% (inactive)

O=C(CCNNC(=O)c1ccncc1)NCc1ccccc1
vessel count % control: 67.2% (inactive)

CCCCCCCCCCCCCCCC(=O)NCCO
vessel count % control: 96.1% (inactive)

CS(=O)(=O)Nc1ccc([N+](=O)[O-])cc1Oc1ccccc1
vessel count % control: 80.2% (inactive)

CC(NC(C)(C)C)C(=O)c1cccc(Cl)c1 (stereo not given)
vessel count % control: 71.1% (inactive)

Cc1nc2c(OCc3ccccc3)cccn2c1CC#N
vessel count % control: 120% (inactive)

Cc1nc(N=Nc2ccc(C(=O)O)cc2)c(COP(=O)(O)O)c(C=O)c1O
vessel count % control: 93.9% (inactive)

NC(=NCc1ccc(Cl)c(Cl)c1)NC(=O)c1nc(Cl)c(N)nc1N
vessel count % control: 108% (inactive)
